# Experimental data: ChEMBL document CHEMBL1201862, “PubChem BioAssay data set” (2004)
# Active and inactive are the calls of the source.
# Key:
# [1] = biological target: T1, Oxysterols receptor LXR-beta (Homo sapiens, UniProt P55055); assay type: functional, cell-based;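 further: agonist activity at LXR measured by a cell-based luminescence readout across a dose range, run as a counterscreen for daf-12 agonists; HEK293 cells with Gal4-LXR fusion and GAL4-driven luciferase reporter; potency for activation of Gal4-LXR reporter so compounds are agonists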
# T1 sequence (P55055 whole entry): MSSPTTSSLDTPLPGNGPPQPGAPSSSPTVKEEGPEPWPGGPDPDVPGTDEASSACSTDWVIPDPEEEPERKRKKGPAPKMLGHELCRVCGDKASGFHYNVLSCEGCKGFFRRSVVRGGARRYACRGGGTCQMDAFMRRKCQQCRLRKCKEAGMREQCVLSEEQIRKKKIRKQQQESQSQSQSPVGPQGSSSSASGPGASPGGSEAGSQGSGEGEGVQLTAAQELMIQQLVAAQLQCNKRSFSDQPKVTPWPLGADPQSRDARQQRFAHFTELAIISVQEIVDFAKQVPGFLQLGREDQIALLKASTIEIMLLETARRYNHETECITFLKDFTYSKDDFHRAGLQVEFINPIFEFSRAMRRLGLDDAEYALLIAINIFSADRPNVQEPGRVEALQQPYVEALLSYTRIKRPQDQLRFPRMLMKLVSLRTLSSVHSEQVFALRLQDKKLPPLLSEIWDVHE
# [2] = biological target: Disintegrin and metalloproteinase domain-containing protein 17 (Homo sapiens, UniProt P78536); assay: exosite inhibitors of ADAM17, dose response, biochemical (AID 743260)
# Chain of Disintegrin and metalloproteinase domain-containing protein 17 (P78536 whole entry, the tested form may be a part): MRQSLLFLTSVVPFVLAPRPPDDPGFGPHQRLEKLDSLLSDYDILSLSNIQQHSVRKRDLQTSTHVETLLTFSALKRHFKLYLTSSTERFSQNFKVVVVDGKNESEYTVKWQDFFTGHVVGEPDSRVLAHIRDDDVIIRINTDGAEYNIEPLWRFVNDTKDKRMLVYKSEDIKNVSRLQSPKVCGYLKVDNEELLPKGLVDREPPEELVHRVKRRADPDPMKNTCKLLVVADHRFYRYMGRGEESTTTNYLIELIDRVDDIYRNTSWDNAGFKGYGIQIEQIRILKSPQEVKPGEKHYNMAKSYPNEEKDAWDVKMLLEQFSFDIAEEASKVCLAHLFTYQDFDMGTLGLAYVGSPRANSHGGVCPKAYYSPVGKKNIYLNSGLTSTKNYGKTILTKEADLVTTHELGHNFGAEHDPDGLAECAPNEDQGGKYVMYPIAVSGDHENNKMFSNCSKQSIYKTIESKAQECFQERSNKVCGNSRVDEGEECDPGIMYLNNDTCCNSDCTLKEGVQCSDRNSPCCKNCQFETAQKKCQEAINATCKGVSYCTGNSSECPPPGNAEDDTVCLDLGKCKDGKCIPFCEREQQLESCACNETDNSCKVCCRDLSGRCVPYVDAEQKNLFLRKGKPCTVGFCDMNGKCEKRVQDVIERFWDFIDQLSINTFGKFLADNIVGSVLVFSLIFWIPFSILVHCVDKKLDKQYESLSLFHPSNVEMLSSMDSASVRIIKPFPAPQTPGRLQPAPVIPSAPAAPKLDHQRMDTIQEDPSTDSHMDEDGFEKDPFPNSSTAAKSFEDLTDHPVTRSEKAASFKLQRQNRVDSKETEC
# [3] = inhibition of ADAM10 peptide cleavage – biochemical, FRET peptide substrate, recombinant human ADAM10, selectivity assay for ADAM17 exosite inhibitor project, dose response (AID 743259);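 further: ADAM10 enzyme cleaving a FRET peptide substrate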
# [4] = luciferase reporter signal suppression in cells – H4 neuroglioma cells, luminescence, dose response (AID 1990); assay type: functional, cell-based
# [5] = Luminescence Cell-Based Dose Response HTS to Identify Inhibitors of 5'UTR Stem-Loop Driven Prion Protein mRNA Translation in H4 Neuroglioblastoma Cells. [Related pubchem assays: 1827 (Project Summary), 1813 (Primary HTS)]; assay type: functional
# [6] = alpha-synuclein stem-loop luciferase translation blockers – H4 neuroglioma cells, luminescence, confirmation (AID 1988); assay type: functional, cell-based
# [7] = biological target: T2, Ubiquitin-conjugating enzyme E2 N (Homo sapiens, UniProt P61088); assay type: functional;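 further: Dose-response confirmation in a TR-FRET assay detecting UBC13-driven polyubiquitin chain formation, inhibition measured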
# T2 sequence (P61088 whole entry): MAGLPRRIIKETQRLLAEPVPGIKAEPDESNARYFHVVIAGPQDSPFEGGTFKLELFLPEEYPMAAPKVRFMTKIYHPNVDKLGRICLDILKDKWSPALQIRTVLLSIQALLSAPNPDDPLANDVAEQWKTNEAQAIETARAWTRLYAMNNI
# [8] = viability loss in HeLa cells – cytotoxicity control for MgcRacGAP inhibitor project, dose response (AID 624300); assay type: functional
# [9] = biological target: T3, Rac GTPase-activating protein 1 (Homo sapiens, UniProt Q9H0H5); assay: blockers of MgcRacGAP-driven Rac1 GTP hydrolysis – biochemical, ADP Hunter fluorescence, primary and confirmatory, confirmation (AID 624330); assay type: functional
# T3 sequence (Q9H0H5 whole entry): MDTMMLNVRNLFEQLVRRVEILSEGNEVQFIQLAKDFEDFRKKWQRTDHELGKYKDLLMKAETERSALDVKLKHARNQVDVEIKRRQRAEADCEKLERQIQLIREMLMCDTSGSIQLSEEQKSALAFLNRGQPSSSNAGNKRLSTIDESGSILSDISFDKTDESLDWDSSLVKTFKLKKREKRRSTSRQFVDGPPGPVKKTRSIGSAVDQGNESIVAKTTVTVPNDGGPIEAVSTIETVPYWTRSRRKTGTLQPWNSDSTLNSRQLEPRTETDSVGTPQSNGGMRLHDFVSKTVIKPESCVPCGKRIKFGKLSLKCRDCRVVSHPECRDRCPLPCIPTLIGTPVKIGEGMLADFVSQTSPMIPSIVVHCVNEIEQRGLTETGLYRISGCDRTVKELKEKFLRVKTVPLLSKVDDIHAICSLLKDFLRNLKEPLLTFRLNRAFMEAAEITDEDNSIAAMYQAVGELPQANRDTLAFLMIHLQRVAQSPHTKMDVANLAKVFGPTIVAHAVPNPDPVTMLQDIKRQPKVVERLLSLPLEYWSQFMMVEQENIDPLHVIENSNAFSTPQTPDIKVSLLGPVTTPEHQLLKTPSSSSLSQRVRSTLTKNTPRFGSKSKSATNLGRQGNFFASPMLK
# Paired box protein Pax-8 = Paired box protein Pax-8 (Homo sapiens, UniProt Q06710); assay: PAX8 transcriptional activity inhibition in RMG-I – RMG-I cells, luciferase, cherry-pick, dose response (AID 687027); assay type: functional, cell-based;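 further: luciferase reporter driven by Pax8 target thyroperoxidase promoter measured by SteadyGlo luminescence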
# Chain of Paired box protein Pax-8 (Q06710 whole entry): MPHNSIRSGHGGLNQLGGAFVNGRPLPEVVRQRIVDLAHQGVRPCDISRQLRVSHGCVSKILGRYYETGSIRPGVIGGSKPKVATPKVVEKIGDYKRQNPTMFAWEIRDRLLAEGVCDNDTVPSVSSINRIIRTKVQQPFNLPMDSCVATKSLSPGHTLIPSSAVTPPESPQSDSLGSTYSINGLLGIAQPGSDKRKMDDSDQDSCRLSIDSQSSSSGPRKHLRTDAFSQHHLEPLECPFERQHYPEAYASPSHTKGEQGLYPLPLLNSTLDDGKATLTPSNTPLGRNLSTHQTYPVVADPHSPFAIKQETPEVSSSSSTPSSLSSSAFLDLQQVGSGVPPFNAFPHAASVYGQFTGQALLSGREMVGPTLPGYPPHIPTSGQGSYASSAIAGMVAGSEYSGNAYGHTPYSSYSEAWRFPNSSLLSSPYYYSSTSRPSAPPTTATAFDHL
# [10] = general cell-killing toxicity readout – plate reader, dry powder samples, cytotoxicity control for PAX8 inhibitor project, dose response (AID 743021); assay type: functional, cell-based
# [11] = activation of miR-122 Renilla sensor silencing – cell-based, Huh7 psiCHECK-miR122, Renilla luciferase, cherry-picked, dose response (AID 651956); assay type: functional;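 further: huh7 hepatoma cells stably carrying a psiCHECK-2 miR-122 sensor plasmid; renilla luciferase signal reporting endogenous miR-122 activity after 48 h compound exposure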
# [12] = general mammalian cell viability loss – activator set, cherry-pick, cytotoxicity control for miR-122 modulator project, dose response (AID 720690); assay type: functional, cell-based;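 further: HEK293T human cells scored for general mammalian cytotoxicity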
# [13] = viability loss in HEK293 kidney cells – cell-based, cherry-picks, set 5, cytotoxicity control, dose response (AID 1053117); assay type: functional
# [14] = viability loss in A549 lung cancer cells – cell-based, cherry-picks, […], cytotoxicity control, dose response (AID 1053119); assay type: functional
# [15] = inhibitors of non-replicating M. tuberculosis, dose response, luciferase, dry powder (AID 651619); assay type: functional; conditions: Mycobacterium tuberculosis
# [16] = HeLa cell viability loss – plate reader, dry powder, cytotoxicity control, dose response (AID 651946); assay type: functional, cell-based
# [17] = inhibitors of non-replicating M. tuberculosis, dose response, luciferase, dry powder (AID 651620); assay type: functional; conditions: Mycobacterium tuberculosis
# [18] = biological target: Endoplasmic reticulum aminopeptidase 1 (Homo sapiens, UniProt Q9NZ08); assay: inhibition of human ERAP1 enzyme activity – biochemical, cherry-pick, set 2, plate reader, dose response (AID 743314)
# Chain of Endoplasmic reticulum aminopeptidase 1 (Q9NZ08 whole entry): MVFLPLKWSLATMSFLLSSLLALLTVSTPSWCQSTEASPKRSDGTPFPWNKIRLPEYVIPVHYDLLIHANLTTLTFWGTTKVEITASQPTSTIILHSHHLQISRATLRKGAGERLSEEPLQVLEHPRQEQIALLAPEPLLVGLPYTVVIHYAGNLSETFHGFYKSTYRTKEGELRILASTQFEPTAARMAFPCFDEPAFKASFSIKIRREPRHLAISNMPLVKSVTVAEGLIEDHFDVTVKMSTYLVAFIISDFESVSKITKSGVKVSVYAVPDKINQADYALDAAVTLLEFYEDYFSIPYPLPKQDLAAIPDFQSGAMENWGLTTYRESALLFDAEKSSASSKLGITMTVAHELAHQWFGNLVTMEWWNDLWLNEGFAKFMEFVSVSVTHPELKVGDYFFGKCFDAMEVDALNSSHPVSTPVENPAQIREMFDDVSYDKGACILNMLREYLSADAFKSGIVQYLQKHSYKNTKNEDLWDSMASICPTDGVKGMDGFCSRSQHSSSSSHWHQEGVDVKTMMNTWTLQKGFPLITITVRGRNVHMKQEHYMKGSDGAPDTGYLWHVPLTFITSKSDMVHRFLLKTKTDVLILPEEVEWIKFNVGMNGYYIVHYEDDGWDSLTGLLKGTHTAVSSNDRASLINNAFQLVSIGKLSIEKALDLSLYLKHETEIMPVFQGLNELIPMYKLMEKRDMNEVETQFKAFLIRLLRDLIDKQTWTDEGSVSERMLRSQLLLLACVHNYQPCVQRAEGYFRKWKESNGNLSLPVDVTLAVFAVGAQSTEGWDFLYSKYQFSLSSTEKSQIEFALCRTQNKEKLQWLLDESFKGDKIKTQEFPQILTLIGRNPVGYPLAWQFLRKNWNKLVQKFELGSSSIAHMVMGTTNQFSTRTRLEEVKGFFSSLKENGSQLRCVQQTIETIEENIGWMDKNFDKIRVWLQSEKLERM
# [19] = biological target: T4, Replicative DNA helicase DnaB (Mycobacterium tuberculosis, UniProt P9WMR3); assay: DnaB intein splicing inhibitors, dose response, biochemical, cell-free fluorescence (AID 449749); assay type: functional
# T4 sequence (P9WMR3 whole entry): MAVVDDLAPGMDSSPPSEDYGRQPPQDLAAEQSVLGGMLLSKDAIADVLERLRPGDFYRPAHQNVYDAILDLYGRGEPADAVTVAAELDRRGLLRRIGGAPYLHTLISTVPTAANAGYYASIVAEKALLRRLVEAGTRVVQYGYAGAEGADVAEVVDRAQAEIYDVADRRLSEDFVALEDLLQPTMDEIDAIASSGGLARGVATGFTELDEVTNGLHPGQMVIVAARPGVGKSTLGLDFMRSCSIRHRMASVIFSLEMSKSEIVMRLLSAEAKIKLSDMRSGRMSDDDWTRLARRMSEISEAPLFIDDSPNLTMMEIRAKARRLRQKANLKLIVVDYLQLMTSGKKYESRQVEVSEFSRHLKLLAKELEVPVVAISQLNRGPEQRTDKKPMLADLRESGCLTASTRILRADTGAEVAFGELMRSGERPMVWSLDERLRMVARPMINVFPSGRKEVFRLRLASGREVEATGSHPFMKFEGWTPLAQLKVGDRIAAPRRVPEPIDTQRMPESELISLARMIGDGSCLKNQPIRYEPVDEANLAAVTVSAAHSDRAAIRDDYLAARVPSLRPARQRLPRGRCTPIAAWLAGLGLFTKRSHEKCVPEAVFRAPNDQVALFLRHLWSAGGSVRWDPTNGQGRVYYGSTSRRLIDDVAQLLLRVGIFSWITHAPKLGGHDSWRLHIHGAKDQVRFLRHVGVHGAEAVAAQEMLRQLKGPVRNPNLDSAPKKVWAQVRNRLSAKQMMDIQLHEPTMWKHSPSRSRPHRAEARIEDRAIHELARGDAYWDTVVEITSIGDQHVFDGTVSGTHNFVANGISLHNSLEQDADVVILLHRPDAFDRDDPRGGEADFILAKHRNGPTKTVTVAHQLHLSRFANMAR
# Protein RecA = biological target: T5, Protein RecA (Mycobacterium tuberculosis, UniProt P9WHJ3); assay: Fluorescence Cell-Free Homogeneous Dose Retest to Identify Inhibitors of RecA-Intein Splicing Activity. [Related pubchem assays (depositor defined):AID2097, AID2223, AID489010, AID492950]; assay type: functional
# T5 sequence (P9WHJ3 whole entry): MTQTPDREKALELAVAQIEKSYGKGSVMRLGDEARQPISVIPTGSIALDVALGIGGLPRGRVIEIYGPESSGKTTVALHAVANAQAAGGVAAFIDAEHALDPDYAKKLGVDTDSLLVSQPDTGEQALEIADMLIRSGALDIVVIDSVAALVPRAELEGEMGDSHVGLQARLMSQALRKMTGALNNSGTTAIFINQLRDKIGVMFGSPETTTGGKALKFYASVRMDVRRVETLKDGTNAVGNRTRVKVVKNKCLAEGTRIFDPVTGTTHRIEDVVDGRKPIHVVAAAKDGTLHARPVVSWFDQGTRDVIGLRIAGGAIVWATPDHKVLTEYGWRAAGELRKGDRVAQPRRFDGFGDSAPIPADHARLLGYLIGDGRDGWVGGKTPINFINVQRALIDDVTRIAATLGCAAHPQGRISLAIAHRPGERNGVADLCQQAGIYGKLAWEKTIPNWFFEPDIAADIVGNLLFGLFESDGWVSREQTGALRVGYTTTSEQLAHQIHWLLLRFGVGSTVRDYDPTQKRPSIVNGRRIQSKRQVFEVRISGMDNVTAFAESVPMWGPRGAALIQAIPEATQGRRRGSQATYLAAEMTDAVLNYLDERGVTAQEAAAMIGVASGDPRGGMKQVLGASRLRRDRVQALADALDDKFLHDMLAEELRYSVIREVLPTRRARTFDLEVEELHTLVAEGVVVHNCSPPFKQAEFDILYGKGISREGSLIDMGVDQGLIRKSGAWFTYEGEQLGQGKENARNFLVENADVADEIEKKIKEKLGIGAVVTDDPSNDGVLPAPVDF
# [20] = biological target: Dual specificity tyrosine-phosphorylation-regulated kinase 1A (Rattus norvegicus, UniProt Q63470); assay type: biochemical, Homo sapiens
# P388/ADR = assay: cells; assay type: functional; conditions: Mus musculus
# SN12K1 = assay: cells; assay type: functional; conditions: Homo sapiens
# P388 = assay: cells; assay type: functional; conditions: Mus musculus
# [21] = bead-based luminescence quenchers, dual-tagged ARNT – biochemical, AlphaScreen, cherry-pick, artefact control for ARNT-TACC3 interaction inhibitor project, dose response (AID 651705); assay type: functional;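 further: AlphaScreen bead proximity signal that flags compounds interfering with the detection technology; potency reflects signal decrease which marks the compound as an assay artifact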
# [22] = biological target: T6, DNA repair protein RAD52 homolog (Homo sapiens, UniProt P43351); assay type: functional, biochemical
# T6 sequence (P43351 whole entry): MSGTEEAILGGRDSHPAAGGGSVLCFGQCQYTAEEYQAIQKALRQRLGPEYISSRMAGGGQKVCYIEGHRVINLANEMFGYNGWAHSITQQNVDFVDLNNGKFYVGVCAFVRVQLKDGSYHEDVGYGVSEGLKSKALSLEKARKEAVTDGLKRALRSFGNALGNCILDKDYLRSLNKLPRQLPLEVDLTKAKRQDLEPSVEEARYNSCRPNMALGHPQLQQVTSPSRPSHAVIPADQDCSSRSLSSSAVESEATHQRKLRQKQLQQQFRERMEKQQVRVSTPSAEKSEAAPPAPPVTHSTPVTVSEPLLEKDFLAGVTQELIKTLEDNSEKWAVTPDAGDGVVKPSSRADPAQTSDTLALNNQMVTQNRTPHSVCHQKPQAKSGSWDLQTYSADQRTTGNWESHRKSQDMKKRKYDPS
# Caspase-6 = biological target: T7, Caspase-6 (Homo sapiens, UniProt P55212); assay: inhibition of CASP6 peptide cleavage – biochemical, VEID-R110 fluorescence, cherry-pick, dose response (AID 720632)
# T7 sequence (P55212 whole entry): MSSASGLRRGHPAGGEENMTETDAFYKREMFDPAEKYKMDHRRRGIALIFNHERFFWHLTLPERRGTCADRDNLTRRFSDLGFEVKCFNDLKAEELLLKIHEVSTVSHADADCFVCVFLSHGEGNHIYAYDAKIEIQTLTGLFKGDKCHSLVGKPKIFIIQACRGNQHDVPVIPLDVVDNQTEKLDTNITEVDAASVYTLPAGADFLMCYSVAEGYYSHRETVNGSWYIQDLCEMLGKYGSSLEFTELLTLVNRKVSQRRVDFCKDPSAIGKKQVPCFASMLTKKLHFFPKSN
# [23] = biological target: Tyrosyl-DNA phosphodiesterase 2 (Homo sapiens, UniProt O95551); assay: potency against TDP2 phosphodiesterase activity – biochemical, epi absorbance, IC50, dose response (AID 743297)
# Chain of Tyrosyl-DNA phosphodiesterase 2 (O95551 whole entry): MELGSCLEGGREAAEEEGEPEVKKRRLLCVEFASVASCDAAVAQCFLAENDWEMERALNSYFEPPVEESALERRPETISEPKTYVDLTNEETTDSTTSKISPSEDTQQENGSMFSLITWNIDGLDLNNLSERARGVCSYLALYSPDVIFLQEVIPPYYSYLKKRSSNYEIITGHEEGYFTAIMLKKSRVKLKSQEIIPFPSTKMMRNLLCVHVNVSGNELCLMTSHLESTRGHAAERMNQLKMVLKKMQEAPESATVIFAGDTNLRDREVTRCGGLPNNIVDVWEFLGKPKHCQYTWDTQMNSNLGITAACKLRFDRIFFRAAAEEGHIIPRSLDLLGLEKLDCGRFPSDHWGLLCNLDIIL
smiles,measurement,setting,value
CCCCCc1nnc(NC(=O)C2=COCCO2)s1,EC50,[1],> 67.6 µM (inactive)
O=C(c1cc2c(s1)CCCCCC2)N1CCC2(CC1)OCCO2,IC50,[2],> 69.5 µM (inactive)
same,IC50,[3],> 69.5 µM (inactive)
COc1ccc2nc(C)cc(N/N=C/c3cccc(OC)c3O)c2c1,EC50,[4],> 120 µM (not active)
same,EC50,[5],> 120 µM (not active)
same,EC50,[6],7.76 µM (active)
same,IC50,[7],> 20 µM (inactive)
same,CC50,[8],23.4 µM (active)
same,IC50,[9],51.8 µM (active)
same,AC50,Paired box protein Pax-8,12 µM (active)
same,AC50,[10],32.4 µM (active)
CO[C@H]1CN(C)C(=O)c2cc(NC(=O)Nc3ccc(Cl)c(Cl)c3)ccc2OC[C@@H](C)NC[C@@H]1C,AC50,[11],21.6 µM (active)
same,AC50,[12],48 µM (active)
same,AC50,[13],> 52 µM (inactive)
same,AC50,[14],> 52 µM (inactive)
c1ccc(COc2nnc(-c3ccccc3)o2)cc1,IC90,[15],8 µM (active)
same,AC50,[16],> 52 µM (inactive)
same,IC90,[17],8 µM (active)
COc1ccc2c3c([nH]c2c1)[C@H](CO)N(Cc1ccccc1OC)CC31CN(C)C1,AC50,[18],14.9 µM (active)
COc1cc2c(cc1OC)-c1c3c(cc4c1[C@@H](C2)N(C)CC4)OCO3,AC50,[19],26.7 µM (active)
same,EC50,Protein RecA,0.952 µM (active)
same,AC50,[20],2.09 µM (active)
same,GI50,P388/ADR,7.08 µM (inactive)
same,GI50,SN12K1,6.1 µM (inactive)
same,GI50,P388,8.53 µM (inactive)
same,AC50,[21],116 µM (active)
same,AC50,[22],1.18 µM (active)
same,AC50,Caspase-6,5.63 µM (active)
same,IC50,[23],7.83 µM (active)
